Assay [1] addresses T1, Histone-lysine N-methyltransferase NSD2 (Homo sapiens, UniProt O96028).
T1 sequence (O96028 whole entry): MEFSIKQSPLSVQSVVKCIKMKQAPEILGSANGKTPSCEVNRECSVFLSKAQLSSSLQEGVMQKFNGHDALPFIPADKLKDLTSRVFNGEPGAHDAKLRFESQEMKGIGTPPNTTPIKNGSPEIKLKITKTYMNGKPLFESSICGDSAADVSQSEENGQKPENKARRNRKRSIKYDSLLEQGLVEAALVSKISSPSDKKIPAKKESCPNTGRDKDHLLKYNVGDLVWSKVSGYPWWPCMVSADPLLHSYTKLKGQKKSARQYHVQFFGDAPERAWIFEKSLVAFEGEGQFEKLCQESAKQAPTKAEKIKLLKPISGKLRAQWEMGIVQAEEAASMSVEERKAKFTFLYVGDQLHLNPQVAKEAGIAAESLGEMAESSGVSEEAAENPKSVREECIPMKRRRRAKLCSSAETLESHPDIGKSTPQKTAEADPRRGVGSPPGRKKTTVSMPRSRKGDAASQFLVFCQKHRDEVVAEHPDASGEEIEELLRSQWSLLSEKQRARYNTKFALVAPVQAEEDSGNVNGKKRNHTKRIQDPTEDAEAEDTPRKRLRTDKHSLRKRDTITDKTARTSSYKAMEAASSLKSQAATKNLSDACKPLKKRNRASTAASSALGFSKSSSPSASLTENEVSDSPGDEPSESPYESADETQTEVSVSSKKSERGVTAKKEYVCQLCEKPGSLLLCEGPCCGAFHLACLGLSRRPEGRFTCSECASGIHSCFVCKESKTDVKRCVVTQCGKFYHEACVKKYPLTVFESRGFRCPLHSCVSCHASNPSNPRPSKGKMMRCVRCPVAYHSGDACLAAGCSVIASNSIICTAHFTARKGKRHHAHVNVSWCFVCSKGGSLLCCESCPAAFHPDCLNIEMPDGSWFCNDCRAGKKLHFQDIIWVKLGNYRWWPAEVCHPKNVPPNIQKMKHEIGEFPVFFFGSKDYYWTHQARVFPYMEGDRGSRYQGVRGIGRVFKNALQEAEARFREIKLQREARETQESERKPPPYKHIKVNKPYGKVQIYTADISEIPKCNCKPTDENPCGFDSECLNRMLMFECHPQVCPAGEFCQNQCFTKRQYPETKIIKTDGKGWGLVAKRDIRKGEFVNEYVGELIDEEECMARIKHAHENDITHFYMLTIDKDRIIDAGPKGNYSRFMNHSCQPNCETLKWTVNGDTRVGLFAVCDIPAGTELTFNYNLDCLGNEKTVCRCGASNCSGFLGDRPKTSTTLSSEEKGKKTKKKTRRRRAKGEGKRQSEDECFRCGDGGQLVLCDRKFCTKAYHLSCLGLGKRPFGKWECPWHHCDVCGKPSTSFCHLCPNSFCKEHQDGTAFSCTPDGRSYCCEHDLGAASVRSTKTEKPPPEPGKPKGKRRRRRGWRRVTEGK
It counts as biochemical.

Assay [2] deals with Serine/threonine-protein kinase PLK4 (Homo sapiens, UniProt O00444). It is filed as functional.
Assay [3] has as its target Tyrosine-protein kinase FRK (Homo sapiens, UniProt P42685). It is filed as functional.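 Note: FRK tested as one member of a kinome panel.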
Assay [4] addresses Lymphokine-activated killer T-cell-originated protein kinase (Homo sapiens, UniProt Q96KB5). It is filed as functional.
In assay [5] the target is Protein kinase C gamma type (Homo sapiens, UniProt P05129). It counts as functional.
The target of assay [6] is Homeodomain-interacting protein kinase 4 (Homo sapiens, UniProt Q8NE63). It is filed as functional.
Assay [7] addresses cGMP-dependent protein kinase 1 (Homo sapiens, UniProt Q13976). It counts as functional.
The target in assay [8] is Casein kinase I isoform gamma-1 (Homo sapiens, UniProt Q9HCP0). It is filed as functional.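 Note: measured as the CSNK1G1 member of a kinome profiling panel.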
Assay [9] has as its target Homeodomain-interacting protein kinase 2 (Homo sapiens, UniProt Q9H2X6). It is filed as functional.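 Note: measured within a kinome-wide kinase profiling panel, HIPK2 being one panel member.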
The target of assay [10] is Phosphorylase b kinase gamma catalytic chain, liver/testis isoform (Homo sapiens, UniProt P15735). It is filed as functional.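 Note: PHKG2 measured as one member of a kinome-wide kinase panel.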
The target in assay [11] is Tyrosine-protein kinase Fer (Homo sapiens, UniProt P16591). It is filed as functional.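 Note: FER tested as one member of a kinome panel.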
For assay [12], the target named is Protein kinase C delta type (Homo sapiens, UniProt Q05655). It is filed as functional.
For assay [13], the target named is Tyrosine-protein kinase SYK (Homo sapiens, UniProt P43405). It counts as functional.
Assay [14] concerns the target Macrophage colony-stimulating factor 1 receptor (Homo sapiens, UniProt P07333). It counts as functional.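 Note: value comes from the Navigating the Kinome screening panel, CSF1R member.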
For assay [15], the target named is Ribosomal protein S6 kinase beta-1 (Homo sapiens, UniProt P23443). It counts as functional.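 Note: measured as one member of a kinome-wide profiling panel.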
In assay [16] the target is Dual specificity tyrosine-phosphorylation-regulated kinase 4 (Homo sapiens, UniProt Q9NR20). It counts as functional.
Assay [17] deals with Mitogen-activated protein kinase 12 (Homo sapiens, UniProt P53778). It counts as functional.
Assay [18] deals with Protein kinase C iota type (Homo sapiens, UniProt P41743). It is filed as functional.
In assay [19] the target is Fibroblast growth factor receptor 3 (Homo sapiens, UniProt P22607). It is filed as functional.
Assay [20] concerns the target Non-receptor tyrosine-protein kinase TYK2 (Homo sapiens, UniProt P29597). It is filed as functional.
Assay [21] concerns the target Megakaryocyte-associated tyrosine-protein kinase (Homo sapiens, UniProt P42679). It counts as functional.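 Note: affinity measured as one member of a kinase panel (Navigating the Kinome) against MATK.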
Assay [22] has as its target Dual specificity tyrosine-phosphorylation-regulated kinase 3 (Homo sapiens, UniProt O43781). It counts as functional.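 Note: measured as one member of a broad kinase panel.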
Assay [23] has as its target Mitogen-activated protein kinase kinase kinase kinase 2 (Homo sapiens, UniProt Q12851). It counts as functional.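 Note: measured as one member of a kinome-wide kinase panel, with MAP4K2 as the panel entry.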

Calls of active or inactive are those of the source. Where only a bound is given, the exact number is not on record here.

Tyrosine-protein kinase Fer, sequence (P16591 whole entry): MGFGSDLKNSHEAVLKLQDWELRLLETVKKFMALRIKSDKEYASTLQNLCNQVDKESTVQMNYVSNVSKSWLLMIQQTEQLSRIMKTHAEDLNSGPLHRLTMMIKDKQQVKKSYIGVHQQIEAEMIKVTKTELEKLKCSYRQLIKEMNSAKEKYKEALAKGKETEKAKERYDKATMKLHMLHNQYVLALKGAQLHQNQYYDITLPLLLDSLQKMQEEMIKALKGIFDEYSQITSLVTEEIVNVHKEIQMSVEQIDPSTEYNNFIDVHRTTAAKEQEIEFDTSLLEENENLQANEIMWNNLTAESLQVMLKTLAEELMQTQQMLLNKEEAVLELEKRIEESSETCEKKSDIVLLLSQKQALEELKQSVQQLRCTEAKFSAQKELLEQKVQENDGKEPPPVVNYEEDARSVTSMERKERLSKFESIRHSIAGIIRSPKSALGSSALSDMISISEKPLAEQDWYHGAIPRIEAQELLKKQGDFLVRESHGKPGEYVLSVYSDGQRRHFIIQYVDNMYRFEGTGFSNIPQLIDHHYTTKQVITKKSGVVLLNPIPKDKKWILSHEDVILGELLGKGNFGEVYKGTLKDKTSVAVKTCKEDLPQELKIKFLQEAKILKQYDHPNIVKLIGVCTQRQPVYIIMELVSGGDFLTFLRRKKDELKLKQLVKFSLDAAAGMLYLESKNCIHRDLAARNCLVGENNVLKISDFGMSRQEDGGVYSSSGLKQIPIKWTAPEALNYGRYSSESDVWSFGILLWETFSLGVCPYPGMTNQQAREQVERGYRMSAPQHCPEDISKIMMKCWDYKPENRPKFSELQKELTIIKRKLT
Non-receptor tyrosine-protein kinase TYK2, sequence (P29597 whole entry): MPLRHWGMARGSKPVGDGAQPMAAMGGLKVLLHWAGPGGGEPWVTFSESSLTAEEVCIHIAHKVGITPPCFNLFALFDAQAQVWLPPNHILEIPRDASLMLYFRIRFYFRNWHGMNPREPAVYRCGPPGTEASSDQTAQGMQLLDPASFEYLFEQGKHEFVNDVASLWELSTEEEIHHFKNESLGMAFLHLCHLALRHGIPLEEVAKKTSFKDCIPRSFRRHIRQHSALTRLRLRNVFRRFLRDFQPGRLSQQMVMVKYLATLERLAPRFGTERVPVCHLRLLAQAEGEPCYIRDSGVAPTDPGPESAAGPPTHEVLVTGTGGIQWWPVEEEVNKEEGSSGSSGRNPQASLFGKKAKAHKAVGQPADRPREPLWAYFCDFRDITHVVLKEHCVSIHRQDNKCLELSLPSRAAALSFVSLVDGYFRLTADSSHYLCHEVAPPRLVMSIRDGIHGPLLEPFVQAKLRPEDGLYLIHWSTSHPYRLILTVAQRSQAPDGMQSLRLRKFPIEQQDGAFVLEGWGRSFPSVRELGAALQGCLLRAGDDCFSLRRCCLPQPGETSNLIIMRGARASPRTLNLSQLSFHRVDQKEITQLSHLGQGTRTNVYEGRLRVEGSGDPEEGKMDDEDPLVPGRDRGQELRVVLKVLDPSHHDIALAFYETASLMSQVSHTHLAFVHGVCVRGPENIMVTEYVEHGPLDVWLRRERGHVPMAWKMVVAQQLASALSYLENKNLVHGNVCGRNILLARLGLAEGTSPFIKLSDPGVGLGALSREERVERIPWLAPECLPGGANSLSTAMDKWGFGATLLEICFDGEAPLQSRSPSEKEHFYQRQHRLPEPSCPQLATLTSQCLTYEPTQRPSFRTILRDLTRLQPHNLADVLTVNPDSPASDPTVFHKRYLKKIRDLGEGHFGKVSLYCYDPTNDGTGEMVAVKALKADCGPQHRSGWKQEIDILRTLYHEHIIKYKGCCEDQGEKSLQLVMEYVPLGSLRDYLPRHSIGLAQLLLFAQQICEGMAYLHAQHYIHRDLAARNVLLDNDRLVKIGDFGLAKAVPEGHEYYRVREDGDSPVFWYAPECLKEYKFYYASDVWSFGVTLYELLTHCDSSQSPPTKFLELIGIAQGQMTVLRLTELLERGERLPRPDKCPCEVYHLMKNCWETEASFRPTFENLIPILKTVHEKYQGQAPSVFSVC
Tyrosine-protein kinase FRK, sequence (P42685 whole entry): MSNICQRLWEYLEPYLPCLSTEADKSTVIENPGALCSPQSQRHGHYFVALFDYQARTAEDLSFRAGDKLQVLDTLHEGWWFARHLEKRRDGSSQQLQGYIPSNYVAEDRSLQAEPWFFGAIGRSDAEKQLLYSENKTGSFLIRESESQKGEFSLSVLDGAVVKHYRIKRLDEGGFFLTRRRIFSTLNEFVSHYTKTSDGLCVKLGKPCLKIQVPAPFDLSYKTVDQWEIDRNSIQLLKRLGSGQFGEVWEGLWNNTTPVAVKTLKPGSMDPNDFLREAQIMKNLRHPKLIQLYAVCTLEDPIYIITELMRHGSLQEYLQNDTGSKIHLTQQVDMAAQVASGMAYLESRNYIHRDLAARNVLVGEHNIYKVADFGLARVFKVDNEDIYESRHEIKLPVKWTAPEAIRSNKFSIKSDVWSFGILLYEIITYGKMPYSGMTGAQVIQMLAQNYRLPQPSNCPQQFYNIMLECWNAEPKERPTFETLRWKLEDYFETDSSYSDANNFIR
Mitogen-activated protein kinase kinase kinase kinase 2, sequence (Q12851 whole entry): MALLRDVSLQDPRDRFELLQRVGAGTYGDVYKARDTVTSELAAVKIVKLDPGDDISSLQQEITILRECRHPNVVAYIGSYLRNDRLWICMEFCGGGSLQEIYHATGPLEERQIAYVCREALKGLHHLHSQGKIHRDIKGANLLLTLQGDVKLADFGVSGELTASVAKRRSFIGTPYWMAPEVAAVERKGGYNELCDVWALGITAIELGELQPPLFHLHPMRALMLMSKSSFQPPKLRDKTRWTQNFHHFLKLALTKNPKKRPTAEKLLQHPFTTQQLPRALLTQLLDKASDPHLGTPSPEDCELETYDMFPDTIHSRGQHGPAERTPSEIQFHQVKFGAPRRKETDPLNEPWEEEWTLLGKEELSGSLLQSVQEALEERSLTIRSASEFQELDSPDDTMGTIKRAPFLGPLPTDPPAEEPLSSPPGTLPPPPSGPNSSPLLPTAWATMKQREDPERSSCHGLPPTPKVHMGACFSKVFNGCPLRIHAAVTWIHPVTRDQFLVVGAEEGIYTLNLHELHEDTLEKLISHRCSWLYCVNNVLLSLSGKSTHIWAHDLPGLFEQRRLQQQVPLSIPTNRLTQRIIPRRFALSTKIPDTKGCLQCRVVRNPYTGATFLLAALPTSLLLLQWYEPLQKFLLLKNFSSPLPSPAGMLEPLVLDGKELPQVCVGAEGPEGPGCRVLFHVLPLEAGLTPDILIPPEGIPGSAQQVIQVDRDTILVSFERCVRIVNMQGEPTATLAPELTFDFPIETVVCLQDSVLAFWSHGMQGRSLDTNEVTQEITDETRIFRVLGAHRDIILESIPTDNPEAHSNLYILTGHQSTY
Homeodomain-interacting protein kinase 2, sequence (Q9H2X6 whole entry, canonical isoform): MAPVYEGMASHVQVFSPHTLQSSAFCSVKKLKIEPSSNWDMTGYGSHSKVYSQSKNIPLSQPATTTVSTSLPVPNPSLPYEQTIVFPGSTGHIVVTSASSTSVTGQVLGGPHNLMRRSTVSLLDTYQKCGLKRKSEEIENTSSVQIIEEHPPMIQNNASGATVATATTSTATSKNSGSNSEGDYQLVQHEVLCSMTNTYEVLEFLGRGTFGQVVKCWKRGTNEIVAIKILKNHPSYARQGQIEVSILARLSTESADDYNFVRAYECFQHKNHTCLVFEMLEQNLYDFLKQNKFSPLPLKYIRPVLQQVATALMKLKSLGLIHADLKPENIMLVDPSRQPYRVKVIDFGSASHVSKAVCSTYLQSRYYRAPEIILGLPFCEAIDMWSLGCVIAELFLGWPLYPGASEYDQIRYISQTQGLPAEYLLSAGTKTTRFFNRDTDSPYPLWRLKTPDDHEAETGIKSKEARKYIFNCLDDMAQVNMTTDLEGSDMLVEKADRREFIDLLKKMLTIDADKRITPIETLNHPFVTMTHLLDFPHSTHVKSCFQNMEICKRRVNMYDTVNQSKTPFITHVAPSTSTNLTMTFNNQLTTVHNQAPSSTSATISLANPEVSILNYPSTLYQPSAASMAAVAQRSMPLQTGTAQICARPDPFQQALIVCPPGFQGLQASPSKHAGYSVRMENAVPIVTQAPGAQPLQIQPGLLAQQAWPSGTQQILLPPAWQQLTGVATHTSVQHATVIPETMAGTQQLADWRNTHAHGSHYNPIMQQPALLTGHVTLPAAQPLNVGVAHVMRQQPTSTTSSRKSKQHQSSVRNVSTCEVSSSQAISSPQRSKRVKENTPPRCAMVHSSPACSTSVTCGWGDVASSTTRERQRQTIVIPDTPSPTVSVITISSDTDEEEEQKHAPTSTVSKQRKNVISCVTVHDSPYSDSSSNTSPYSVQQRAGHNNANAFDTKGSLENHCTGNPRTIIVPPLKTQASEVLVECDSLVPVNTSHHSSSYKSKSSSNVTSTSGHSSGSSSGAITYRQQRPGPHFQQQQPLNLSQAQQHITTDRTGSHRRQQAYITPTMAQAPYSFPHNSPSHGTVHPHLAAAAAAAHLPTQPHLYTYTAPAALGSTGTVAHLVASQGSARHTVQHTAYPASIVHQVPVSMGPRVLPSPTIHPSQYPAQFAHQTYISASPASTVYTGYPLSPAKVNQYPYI
Ribosomal protein S6 kinase beta-1, sequence (P23443 whole entry): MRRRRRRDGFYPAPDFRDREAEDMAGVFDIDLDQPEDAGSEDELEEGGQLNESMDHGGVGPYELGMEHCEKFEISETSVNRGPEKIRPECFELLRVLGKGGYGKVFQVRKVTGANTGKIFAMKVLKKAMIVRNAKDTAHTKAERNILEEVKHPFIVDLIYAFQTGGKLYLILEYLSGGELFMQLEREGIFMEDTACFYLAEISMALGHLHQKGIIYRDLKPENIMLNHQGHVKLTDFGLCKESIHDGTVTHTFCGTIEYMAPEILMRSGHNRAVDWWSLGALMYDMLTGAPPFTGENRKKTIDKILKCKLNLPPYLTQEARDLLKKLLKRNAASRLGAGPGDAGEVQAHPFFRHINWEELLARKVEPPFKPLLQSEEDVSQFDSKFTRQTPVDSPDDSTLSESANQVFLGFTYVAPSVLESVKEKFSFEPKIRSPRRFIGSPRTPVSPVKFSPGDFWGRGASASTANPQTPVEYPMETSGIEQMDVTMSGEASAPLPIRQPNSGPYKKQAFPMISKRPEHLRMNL

For `CCc1ccc(S(=O)(=O)/N=C2\C=C(NS(=O)(=O)c3ccccc3)C(=O)c3ccccc32)cc1`, in assay [1], the AC50 is 5.4 µM (active).
As for `Cn1cncc1C(OCc1c(-c2ccc(OC(F)(F)F)cc2)cc(C#N)c(=O)n1C)c1ccc(C#N)cc1` (stereo not drawn), the Ki in [2] is > 3.98 µM (inactive); in [3], > 2.51 µM (inactive); in assay [4], > 10 µM (inactive); in assay [5], > 7.94 µM (inactive); in assay [6] it was > 7.94 µM (inactive); in assay [7], > 2 µM (inactive). Also, the Ki in assay [8] is > 6.31 µM (inactive); in [9], > 3.16 µM (inactive); in assay [10] it was > 5.01 µM (inactive); in [11], > 1.58 µM (inactive); in assay [12] it was > 7.94 µM (inactive); in assay [13], > 1.58 µM (inactive). The Ki in assay [14] is > 2.51 µM (inactive); in assay [15], 1.58 µM (active); in [16], > 7.94 µM (inactive); in assay [17], > 6.31 µM (inactive); in assay [18], > 5.01 µM (inactive); in assay [19], > 2 µM (inactive). The Ki in assay [20] was > 2 µM (inactive); in [21] it was > 2 µM (inactive); in assay [22], > 6.31 µM (inactive); in assay [23], > 6.31 µM (inactive).

(Values after ChEMBL document CHEMBL1201862, “PubChem BioAssay data set” (2004).)
